According to patent US12322837B2, “Electrochemical reduction of halogenated compounds comprising a haloalkane” (Massachusetts Institute of Technology, priority 2021, dated 2025):
Converted amounts (≈) assume the structure as drawn.

Assays:
[1] = Solubility/miscibility of reactants in DMSO or 0.1 M LiClO4/DMSO; format: physicochemical; details: for miscibility with 0.1 M LiClO4/DMSO: even at 50° C.
Excerpt: To understand the effect of the chain length of the RF group, the discharge profiles of Ph-NO2-C6 (o) vs. Ph-NO2-C8 (o) and Ph-CN-C6 (p) vs. Ph-CN-C8 (p) were compared. As is shown in FIG. 5, up to 11 e- or 15 e- transfer per molecule (calculated based on capacities) can be obtained during discharge for C6 or C8 containing reactants, respectively. […] For example, Ph-CN-C6 (p) is liquid and miscible with DMSO at RT, but its C8 counterpart is solid at RT and is only soluble at elevated temperatures (e.g., 50° C.).

[2] = Ionic conductivity of NO2-Ph-SF5-containing electrolytes; format: physicochemical
Excerpt: Theoretical capacities correspond to 8 e^−per molecule. Capacities increased from 292 to 362 mAh·gsub-stack^−1 as concentration increased from 3 M to 4 M, beyond which further gains were negligible. The maximum gravimetric energy of 1085 Wh·kgsub-stack^−1 was obtained at 4.5 M. Capacity and energy decreased with concentrations exceeding 4.5 M due to diminishing supporting solvent (DMSO, ˜16 wt. % of the catholyte at 5 M), which led to significant decline in ionic conductivity from 6.4 to 0.6 mS·cm^−1 from 0.1 M to 5 M (FIG. 24). Additionally, low DMSO content decreases the ability to solubilize LiF, making electrode passivation effects more severe. Capacities remained constant at ˜362 mAh·gsub-stack^−1 from 0.3-1.0 mA·cm^−2 (0.01 C-0.04 C) and decreased moderately thereafter up to 3 mA·cm^−2 (0.12 C), indicating excellent rate capability.

SMILES | miscibility with 0.1 M LiClO4/DMSO [1] | solubility / reachable concentration in 0.1 M LiClO4/DMSO ([1]; RT) | further results
N#Cc1ccc(C=CC(F)(F)C(F)(F)C(F)(F)C(F)(F)C(F)(F)C(F)(F)F)cc1 [Ph-CN-C6 (p)] | – | – | miscibility with DMSO ([1]; RT): miscible
N#Cc1ccc(C=CC(F)(F)C(F)(F)C(F)(F)C(F)(F)C(F)(F)C(F)(F)C(F)(F)C(F)(F)F)cc1 [Ph-CN-C8 (p)] | – | not soluble | solubility limit in 0.1 M LiClO4/DMSO ([1]; 50° C.): 800 mM (≈ 438 mg/mL)
FC(F)(F)c1ccc(C=CC(F)(F)C(F)(F)C(F)(F)C(F)(F)C(F)(F)C(F)(F)F)cc1 [Ph-CF3—C6 (p)] | negligible miscibility | – | –
O=[N+]([O-])c1ccc(S(F)(F)(F)(F)F)cc1 [NO2-Ph-SF5, 4-Nitrophenylsulfur pentafluoride] | – | – | ionic conductivity of electrolyte ([2]; 0.1 M NO2-Ph-SF5): 6.4 mS·cm^−1; ionic conductivity of electrolyte ([2]; 5 M NO2-Ph-SF5): 0.6 mS·cm^−1
FC(F)(F)c1ccccc1C=CC(F)(F)C(F)(F)C(F)(F)C(F)(F)C(F)(F)C(F)(F)F [Ph-CF3—C6 (o)] | negligible miscibility | – | –
O=[N+]([O-])c1ccccc1C=CC(F)(F)C(F)(F)C(F)(F)C(F)(F)C(F)(F)C(F)(F)C(F)(F)C(F)(F)F [Ph-NO2—C8 (o)] | – | 2000 mM (≈ 1130 mg/mL) | –
